The results in this text go back to US4198405A, “Prostaglandine derivatives” (priority 1978, dated 1980).

Data set [1] has as its system ICR-JCL mice of the sixth day of pregnancy. Description: Test of abortion by intravenous injection, 4 days (Table 3). The class given is in vivo. The note with it: i.v. once a day. Here is the method:
(§1) The continuous administrations were applied to ICR-JCL mice of the sixth day of pregnancy (5 mice as one group) to examine the efficiency of the abortion obtained by the drugs of this invention in comparison with that of PGF2 α. After 0.2 ml of 5% ethanol-saline solution containing the […], the […] or PGF2 α was given to the mice once a day during 4 days by intravenous injection and subcutaneous injection at some dose, their breeding were continued to confirm the abortion of the group administrated with the drugs until the partus of the control group administrated with only ethanol saline solution.

Data set [2] has the same test system. Put plainly: Test of abortion by subcutaneous injection, 4 days (Table 2). The class given is in vivo. To be noted: s.c. once a day. How it is done: as §1
A further data set relates to ICR-JCL female mice. Put plainly: Acute toxicity (LD50), intravenous injection. The note with it: for abnormality observed / survival of mice (acute toxicity): 400 mg/kg; for survival of mice (acute toxicity): 10 mice; for LD50 (in words): 7 days, Litchfield-Wilcoxon graph method. The class given is in vivo. How it is done: Acute toxicities (LD50) of PGFE,PGFE-4AC and PGFE-3A are measured by intravenous injections at a dose of 400 mg/kg to ten of ICR-JCL female mice (4 weeks age).
(§2) Acute toxicity (LD50) and abnormal tachycardia, respirogram and electrocardiogram by a biophysiograph were tested.
In the measurement of LD50, 10ICR-JCL female mice (4 week age) were used as one group. 0.2 ml of 50% ethanol-saline solution containing the drug of this invention was intravenously injected to the mice at several doses during 7 days to obtain their value of LD50 by Litchfield-Wilcoxon graph method.

The subject of data set [3] is ICR-JCL pregnant mice. Description: Side-effect test: tachycardia, respirogram and electrocardiogram by biophysiograph. To be noted: for tachycardia, respirogram and electrocardiogram compared with control: intravenous; for abnormal condition in tachycardia, respirogram and electrocardiogram: mice in pregnancy, before and after administration. The class given is in vivo. Here is the method:
The tachycardia, respirogram and electrocardiogram of mice in pregnancy before and after the administration of PGF2 α, PGFE, PGFE-4AC and PGFE-3AC are tested by a biophysiograph 180-4(4ch) (manufactured by San-ei Sokuki K.K.).
as §2
Electrocardiogram was measured by a biophysiograph 180-4 (4 ch) (manufactured by San-ei Sokuki K.K.) for ICR-JCL pregnant mice (6th day) at 3 minutes after the administration of each sample.
In the test, 0.2 ml of 50% ethanol-saline solution was intravenously injected to the mice at a dose of 30γ per mouse. As the reference, the PGF2 α was also used as the sample (a dose of 15γ per mouse).
The results of the measurements are shown in FIGS. 2 to 5 wherein mV is given on ordinate and time (second) is given on abscissas and the chart speed was 250 mm/sec.

Data set [4] relates to ICR-JCL pregnant mice. Put plainly: Efficiency of abortion, summary in words of the tests in pregnant mice. The class given is in vivo. To be noted: for efficiency of abortion compared with PGF2 α: intravenous and subcutaneous, 4 days; for abortion (in words): continuous administration during 4 days; for abortion effect in comparison with PGF2 α: suitable administrations and doses. Here is the method:
The efficiency of abortion of PGFE,PGFE-4AC and PGFE-3AC are tested as pharmacological effects in suitable administrations and doses by using ICR-JCL pregnant mice.
The continuous administrations were applied to ICR-JCL mice of the sixth day of pregnancy (5 mice as one group) to examine the efficiency of the abortion obtained by the drugs of this invention in comparison with that of PGF2 α. After 0.2 ml of 5% ethanol-saline solution containing the PGFE-3AC, the PGFE-4AC or PGF2 α was given to the mice once a day during 4 days by intravenous injection and subcutaneous injection at some dose, their breeding were continued to confirm the abortion of the group administrated with the drugs until the partus of the control group administrated with only ethanol saline solution.

In the next data set the test system is rats (uterus). Description: Hysterotrimus and cardiac activity by intravenous injection to rats.
A further data set has as its system estrogen receptor. Description: Competitive receptor assay with 3H-estradiol in rabbit uterus. It is filed as binding. The note with it: for binding to the estrogen receptor: in accordance with the method of Example 1. Here is the method:
Binding function of estradiol and the PGFE to each uterus of rabbit were measured by the competitive receptor assay. Estradiol labelled by tritium (^3 H) was incubated with uterus of rabbit to bind it and then, estradiol or the PGFE was added to the system to measure the amount of free ^3 H-estradiol which was replaced by the added estradiol or the PGFE.

Data set [5] relates to ICR-JCL pregnant mice. Put plainly: Abortion test, intravenous injection once a day during 4 days (Table 1). The note with it: i.v. once a day. The class given is in vivo. How it is done:
The abortion was studied with ICR-JCL pregnant mice by the continuous administration of the drug during 4 days and the side-effect in the administration was also examined. After 0.2 ml of 50% ethanol-saline solution containing the PGFE at dose 10γ and 30γ/mouse or PGF2 α at dose 15γ/mouse(equimole of PGFE 30γ) was intravenously injected to the mice once a day during 4 days, their breedings were continued to confirm the abortion of the group administrated with the drugs until the partus of the control group administrated with only ethanol saline solution.

Where [6] appears, read: 30γ/mouse, 3 minutes after administration.
The mark [7] stands for this setting: in accordance with the method of Example 1.

Each structure is given as a SMILES string. “Also recorded” adds a separate entry of the source.

In the case of `CCCCC[C@@H](/C=C/[C@@H]1[C@@H](C/C=C\CCCC(=O)OCC(=O)O[C@H]2CC[C@H]3[C@@H]4CCc5cc(O)ccc5[C@H]4CC[C@]23C)[C@@H](OC(C)=O)C[C@H]1OC(C)=O)OC(C)=O` [PGFE-3AC, estra-1,3,5(10)-triene-3-hydroxy-17-oxycarbonylmethyl-9α,11α,15α-triacetoxy-5(cis)-13(trans)-prostadienoate], in data set [1] (1.0 .tau./mouse), the Efficiency of abortion came out at 20% and the “Result of parturition (5 mice in group)” value is listed as 4. For the same compound, in data set [1] (2.5 .tau./mouse), the Efficiency of abortion turned out to be 60% and the “Result of parturition (5 mice in group)” value came out at 2. In data set [1] (5.0 .tau./mouse), the Efficiency of abortion is listed as 100% and the “Result of parturition (5 mice in group)” value amounted to 0. Besides, in data set [2] (15 .tau./mouse), the Efficiency of abortion stood at 100% and the “Result of parturition (5 mice in group)” value came to 0. In addition, in the data set with ICR-JCL female mice, the abnormality observed entry is recorded as “any abnormality was not observed”, the “survival of mice (acute toxicity)” value was “all of the mice were survived” and the “LD50 (in words)” value is reported as “too high to be impossible to measure directly”. The “survival of mice (acute toxicity)” value in the data set with ICR-JCL female mice (listed as PGFE-3A) is “All of mice (10) are survived”. The “tachycardia, respirogram and electrocardiogram compared with control” value (shortened to “tachycardia … compared with control”) with ICR-JCL pregnant mice [3] (setting [6]) is on record as “substantially the same with those of the control”. Also, in the data set with ICR-JCL pregnant mice [3], the “abnormal condition in tachycardia, respirogram and electrocardiogram” value (shortened to “abnormal condition in tachycardia”) is “any abnormal condition is not observed”. In addition, in the data set on ICR-JCL pregnant mice [4], the “efficiency of abortion compared with PGF2 α” value is “remarkably superior” and the “abortion effect in comparison with PGF2 α” value (“abortion effect” for short) is reported as “greatly superior effect”. The “abortion (in words)” value in the data set with ICR-JCL pregnant mice [4] (same dose as PGF2 α or less) is listed as “satisfied results are obtained”.
Consider `CCCCC[C@H](O)/C=C/[C@H]1[C@H](O)CC(=O)[C@@H]1C/C=C\CCCC(=O)OCC(=O)OCC(=O)[C@H]1CC[C@H]2[C@@H]3CCC4=CC(=O)CC[C@]4(C)[C@H]3CC[C@]12C` [PGE2 P], for which the hysterotrimus entry with rats (uterus) (setting [7]) was “cause hysterotrimus”. In addition, the “binding to the estrogen receptor” value with estrogen receptor is listed as “bonded to the estrogen receptor”.
As to `CCCCC[C@H](O)/C=C/[C@@H]1[C@@H](C/C=C\CCCC(=O)OCC(=O)O[C@H]2CC[C@H]3[C@@H]4CCc5cc(O)ccc5[C@H]4CC[C@]23C)[C@@H](O)C[C@H]1O` [PGFE, estra-1,3,5(10)-triene-3-hydroxy-17-oxycarbonylmethyl-9α,11α,15α-trihydroxy-5(cis)-13(trans)prostadienoate], the hysterotrimus entry in the data set on rats (uterus) (5 to 50γ (printed "5 L to 50γ"), intravenous, rats) was “gaved of the hysterotrimus”. In the data set on rats (uterus) (50γ, intravenous, rats), the cardiac activity result is “the cardiac activity was in the normal condition”. Moreover, in the data set with rats (uterus) (intravenous, rats), the “beginning of hysterotrimus in comparison with PGF2 α” value was “some delay in the beginning of hystrotrimus”. Further, in the data set on rats (uterus) (up to 50γ, intravenous, rats), the side-effect result is recorded as “no side-effect was found”. The “binding function to estrogen receptor” value with estrogen receptor (uterus of rabbit, displacement of 3H-estradiol, FIG. 1) is given as “has the binding function to estrogen receptor as the same with the estradiol itself”. In the data set with ICR-JCL female mice, the “survival of mice (acute toxicity)” value is “All of mice (10) are survived”. For the same compound, in the data set with ICR-JCL pregnant mice [3], the “abnormal condition in tachycardia” value was “any abnormal condition is not observed”. Further, the “abortion (in words)” value with ICR-JCL pregnant mice [4] (same dose as PGF2 α or less) is reported as “satisfied results are obtained”. Moreover, the “abortion effect” value in the data set on ICR-JCL pregnant mice [4] was “greatly superior effect”. In addition, in the data set with ICR-JCL pregnant mice [5] (10 γ/mouse), the Effect of abortion is reported as 100% and the “Result of parturition (5 mice in group)” value came to 0. Moreover, in the data set with ICR-JCL pregnant mice [5] (30 γ/mouse), the Effect of abortion amounted to 100% and the “Result of parturition (5 mice in group)” value was found to be 0.
As to `CCCCC[C@@H](/C=C/[C@@H]1[C@@H](C/C=C\CCCC(=O)OCC(=O)O[C@H]2CC[C@H]3[C@@H]4CCc5cc(OC(C)=O)ccc5[C@H]4CC[C@]23C)[C@@H](OC(C)=O)C[C@H]1OC(C)=O)OC(C)=O` [PGFE-4AC, estra-1,3,5(10)-triene-3-acetoxy-17-oxycarbonylmethyl-9α,11α,15α-triacetoxy-5(cis)-13(trans)prostadienoate], in data set [1] (2.5 .tau./mouse), the Efficiency of abortion stood at 40% and the “Result of parturition (5 mice in group)” value came out at 3. In data set [1] (5.0 .tau./mouse), the Efficiency of abortion stood at 100% and the “Result of parturition (5 mice in group)” value is reported as 0. In data set [2] (15 .tau./mouse), the Efficiency of abortion came to 100% and the “Result of parturition (5 mice in group)” value worked out at 0. In data set [2] (30 .tau./mouse), the Efficiency of abortion stood at 100% and the “Result of parturition (5 mice in group)” value amounted to 0. Also, in the data set on ICR-JCL female mice, the abnormality observed result is “any abnormality was not observed”, the “survival of mice (acute toxicity)” value is reported as “all of the mice were survived; also recorded: All of mice (10) are survived” and the “LD50 (in words)” value was “too high to be impossible to measure directly”. In the data set with ICR-JCL pregnant mice [3] (setting [6]), the “tachycardia … compared with control” value is “substantially the same with those of the control”. Further, the “abnormal condition in tachycardia” value in the data set with ICR-JCL pregnant mice [3] is “any abnormal condition is not observed”. Moreover, in the data set with ICR-JCL pregnant mice [4], the “efficiency of abortion compared with PGF2 α” value is on record as “remarkably superior” and the “abortion effect” value is “greatly superior effect”. For the same compound, the “abortion (in words)” value in the data set with ICR-JCL pregnant mice [4] (same dose as PGF2 α or less) is recorded as “satisfied results are obtained”.
On to `CCCCC[C@H](O)/C=C/[C@@H]1[C@@H](C/C=C\CCCC(=O)OC2CC[C@H]3[C@@H]4CCc5cc(O)ccc5[C@H]4CC[C@]23C)[C@@H](O)C[C@H]1O` (stereo partly shown) [Example 2], for which, in the data set on rats (uterus) (setting [7]), the hysterotrimus result is reported as “cause hysterotrimus”. In addition, the “binding to the estrogen receptor” value in the data set on estrogen receptor is on record as “bonded to the estrogen receptor”.
Consider `CCCCC[C@H](O)/C=C/[C@@H]1[C@@H](C/C=C\CCCC(=O)O)[C@@H](O)C[C@H]1O` [PGF2 α, 9α,11α,15α-trihydroxy-5(cis)-13(trans)-prostadienoic acid, reference compound], for which the cardiac activity result with rats (uterus) (5γ, intravenous, rats) is listed as “cardiac stop was caused”. Moreover, the hysterotrimus result in the data set with rats (uterus) (5γ, intravenous, rats) is listed as “gaved of the hysterotrimus”. Besides, the Efficiency of abortion was 0% in data set [1] (2.5 .tau./mouse); 0% in data set [1] (5.0 .tau./mouse); 20% in data set [1] (15.0 .tau./mouse); 0% in data set [2] (15 .tau./mouse); 20% in data set [2] (30 .tau./mouse). Besides, the “Result of parturition (5 mice in group)” value in data set [1] (2.5 .tau./mouse) is given as 5; in data set [1] (5.0 .tau./mouse) it was 5; in data set [1] (15.0 .tau./mouse) it was 4; in data set [2] (15 .tau./mouse) it was 5; in data set [2] (30 .tau./mouse), 4; in the data set with ICR-JCL pregnant mice [5] (15 γ/mouse) it was 5. Also, in the data set on ICR-JCL pregnant mice [3] (15γ/mouse, 3 minutes after administration (FIG. 3)), the “tachycardia … compared with control” value is “abnormally different from those of the control”. Further, the “abnormal condition in tachycardia” value in the data set with ICR-JCL pregnant mice [3] is “abnormal conditions are clearly observed”. Moreover, the “abortion (in words)” value in the data set on ICR-JCL pregnant mice [4] (15α (4.24×10^-8 moles)/mouse) is on record as “The abortion is incomplete”. Moreover, the Effect of abortion in the data set on ICR-JCL pregnant mice [5] (15 γ/mouse) was determined as 0%.
